PubChem BioAssay (NCI)
Values joined by “and” are separate entries in the source; they are usually repeats but may differ in a detail not shown here. Identical values can stand only once.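 Five concentrations, 48 hours, 96-well plates. Abbreviation: GI50, concentration required for 50% inhibition of growth. Definition used: TGI = concentration required for complete inhibition of growth.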

Columns and labels:
Assay in all cases: NCI tumour cell line growth inhibition, 48 h
[1] = test system: SF-295 CNS
[2] = test system: IGROV1 ovarian
[3] = test system: COLO 205 colon
[4] = test system: LOX IMVI melanoma
[5] = test system: MCF7 breast
[6] = test system: MALME-3M melanoma
[7] = test system: SNB-75 CNS
[8] = test system: A498 renal
[9] = test system: HOP-62 NSCLC
[10] = test system: SR leukemia

Row | Compound | TGI [1] | GI50 [2] | TGI [2] | GI50 [3] | TGI [3] | GI50 [4] | TGI [4] | GI50 [5] | TGI [5] | GI50 [6] | TGI [6] | GI50 [7] | TGI [7] | GI50 [8] | TGI [8] | GI50 [9] | TGI [9] | GI50 [10] | TGI [10] | GI50 [1]
1 | Nc1nc(N)c2c(ccc3c2ccn3Cc2cccc([N+](=O)[O-])c2)n1 | 3.49 µM and 4.55 µM | 0.00295 µM | 0.0255 µM | 1.1 µM and 0.15 µM | 4.08 µM and 1.79 µM | 0.00831 µM | 1.47 µM | 0.0565 µM and 0.0293 µM | 2.72 µM and 1.45 µM | 1.21 µM | 2.81 µM | 1.11 µM | 2.36 µM | 0.166 µM and 0.224 µM | 1.97 µM and 1.94 µM | 0.0654 µM | 1.87 µM | 0.00779 µM | – | –
2 | O=C1OC(OC/C(Br)=C(\Br)COC2OC(=O)C(Cl)=C2Cl)C(Cl)=C1Cl (stereo not drawn) | 34.7 µM | – | 26.3 µM | – | 4.11 µM | – | 8.29 µM | – | 25.4 µM | – | 9.02 µM | – | 39.4 µM | – | 34.1 µM | – | 29.5 µM | – | 2.16 µM | –
3 | Oc1c(C(Nc2ccccn2)c2ccccc2)ccc2cccnc12 (stereo not drawn) | > 30.3 µM | – | 16.3 µM | – | 65.9 µM | – | 37.9 µM | – | > 100 µM | – | 22 µM | – | > 60.9 µM | – | 54.8 µM | – | > 68.3 µM | – | > 22.6 µM | –
4 | O=C1/C=C/[C@@H](O)[C@@H]2C[C@@H](O)C[C@H]2/C=C/CCC[C@H](CCO)O1 | > 100 µM | 0.382 µM | > 100 µM | 0.104 µM | 0.241 µM | 0.157 µM | 0.377 µM | 0.188 µM | 0.558 µM | 0.0951 µM | 0.529 µM | 0.0994 µM | > 100 µM | 0.0442 µM | 0.274 µM | 0.237 µM | > 31.6 µM | 0.297 µM | – | 0.29 µM
5 | C[C@]12CC[C@H]3[C@@H](CC[C@]4(O)C[C@@H](O)CC[C@]34C=O)[C@@]1(O)CC[C@@H]2C1=CC(=O)OC1 | 1.74 µM | – | 19.6 µM | – | 6.7 µM | – | 2.46 µM | – | – | – | 2.03 µM | – | – | – | 1.93 µM | – | 0.533 µM | – | > 100 µM | –
6 | CCCCCCC(=O)NC1=C(N2CC2)C(=O)C(NC(=O)CCCCCC)=C(N2CC2)C1=O | 34 µM | 2.31 µM | > 100 µM | – | – | 3.03 µM | > 100 µM | 2.06 µM | > 100 µM | 1.6 µM | 4.98 µM | 11.7 µM | 43.9 µM | 2.62 µM | > 100 µM | 5.35 µM | > 100 µM | 1.06 µM | > 100 µM | 0.444 µM
7 | COc1ccc(C(C2=C(O)CC(C)OC2=O)C2=C(O)CC(C)OC2=O)cc1 (stereo not drawn) | > 100 µM | – | > 100 µM | – | > 100 µM | – | > 100 µM | – | – | – | > 100 µM | – | > 100 µM | – | – | – | > 100 µM | – | > 100 µM | –
8 | O=C(Nc1ccc(Cl)c(Cl)c1)c1ccc(NC2=C(Cl)C(=O)N(Cc3ccccc3)C2=O)cc1 | 34.7 µM | 2.71 µM | 8.14 µM | 20 µM | 66.6 µM | – | – | 2.1 µM | 4.82 µM | 11.2 µM | 24.8 µM | 16.1 µM | 56.4 µM | 17.6 µM | 36.8 µM | 17.4 µM | 31.3 µM | 2.23 µM | 5.27 µM | 13.6 µM
9 | CCN1CCN(c2ccc(NC(=O)Nc3nc4ccc(-c5ccccc5OC)cc4s3)cc2)CC1 | 3.09 µM | 1.87 µM | 3.61 µM | 1.97 µM | 3.85 µM | 1.7 µM | 3.17 µM | 1.31 µM | 2.86 µM | 1.71 µM | 3.34 µM | 1.49 µM | 2.86 µM | 1.8 µM | 3.61 µM | – | – | 1.65 µM | 4.31 µM | 1.68 µM
10 | [N-]=[N+]=C(C(=O)CN1CCCC1=O)S(=O)(=O)c1ccccc1 | > 100 µM | – | > 100 µM | – | > 100 µM | – | > 100 µM | – | > 100 µM | – | > 100 µM | – | > 100 µM | – | – | – | > 100 µM | – | > 100 µM | –
11 | COc1cc(C2c3cc4c(cc3[C@@H](NC3CCN(Cc5ccccc5)CC3)C3COC(=O)[C@H]23)OCO4)cc(OC)c1O (stereo partly drawn) | 0.498 µM and 0.752 µM | – | 3.59 µM and 0.567 µM | 0.372 µM and 0.179 µM | – | 0.145 µM and 0.0349 µM | 1.18 µM and 0.231 µM | – | – | 0.238 µM and 0.113 µM | 1.6 µM and 1.11 µM | 0.0324 µM and 0.218 µM | 1.79 µM and 0.636 µM | – | 0.498 µM | – | 0.206 µM and 0.146 µM | – | 0.02 µM | –
12 | O=C(NC1CCC[C@H]1OC(=O)c1ccccc1)c1ccccc1 (stereo partly drawn) | > 100 µM | – | > 100 µM | – | – | – | – | – | – | – | > 100 µM | – | 98.9 µM | – | > 100 µM | – | – | – | > 100 µM | –
13 | Clc1ccc2c(NC3CCC(N4CCCCC4)CC3)ccnc2c1 (stereo not drawn) | 36.8 µM | – | > 100 µM | – | 27.2 µM | – | 33 µM | – | > 100 µM | – | 36.1 µM | – | – | – | 38.6 µM | – | > 100 µM | – | 35.5 µM | –
14 | O=C(Nc1ccc(Br)cc1)C(=O)C(C(=O)c1ccc(Cl)c(Cl)c1)C1OC(=O)c2ccccc21 (stereo not drawn) | 65.3 µM | – | 42.8 µM | – | 34.8 µM | – | 47 µM | – | – | – | 24.1 µM | – | 65.9 µM | – | 33.9 µM | – | 32.5 µM | – | > 100 µM | –
15 | C/C(=N\N=C(N)N)C(CN1CCOCC1)C(c1ccccc1)c1c(O)c2ccccc2oc1=O (stereo not drawn) | > 100 µM | – | > 100 µM | – | > 100 µM | – | > 100 µM | – | – | – | > 100 µM | – | 99.4 µM | – | – | – | > 100 µM | – | > 100 µM | –
16 | O=C1c2ccccc2C(=O)N1CC#CCO | > 100 µM | – | – | – | – | – | – | – | – | – | – | – | – | – | > 100 µM | – | > 100 µM | – | > 100 µM | –
17 | CC1(C)CC(=O)C(CC2C(=O)CCCC2=O)C(=O)C1 | > 100 µM | – | > 100 µM | – | > 100 µM | – | > 100 µM | – | – | – | > 100 µM | – | > 100 µM | – | > 100 µM | – | > 100 µM | – | > 100 µM | –
18 | O=C(CC12C3C4C1C1C2C3C41CC(=O)NO)NO (stereo not drawn) | > 100 µM | – | – | – | > 100 µM | – | 74.5 µM | – | – | – | > 100 µM | – | 81 µM | – | 76.1 µM | – | > 100 µM | – | > 100 µM | –
19 | C=CCC1(CN(C)C)CC/C(=C\c2ccc3c(c2)OCO3)C1=O (stereo not drawn) | > 100 µM | – | > 100 µM | – | 54.1 µM | – | > 100 µM | – | – | – | > 100 µM | – | > 100 µM | – | > 100 µM | – | > 100 µM | – | > 100 µM | –
20 | C=CC1=C(C)C(/C=c2\[nH]/c(=C/c3[nH]c(CC4NC(=O)C(C)/C4=C\C)c(C)c3CCC(=O)O)c(CC(=O)O)c2C)=NC1=O (stereo not drawn) | > 100 µM | – | > 100 µM | – | > 100 µM | – | > 100 µM | – | – | – | > 100 µM | – | > 100 µM | – | – | – | > 100 µM | – | > 100 µM | –
